According to US20250093263A1, “FRET-BASED ASSAYS” (The General Hospital Corporation, priority 2021, published 2025):
Where “and” joins values, the source holds several entries; their conditions need not be identical. Equal entries are not always repeated. Structures can show the parent of a compound that is named as a salt. Where two headings read alike, the source gives them in different places. Marks after values point to notes of the source that are not given here. One block for each compound: values may come before it.

Key:
[1] = target: T1, PfcProRS (Plasmodium falciparum, UniProt Q8I5R7); assay: biochemical; assay type: binding
T1 construct: made in house; host or cells: SoluBL-21 E. coli

[2] = target: T2, Keap1 (His/GST) (Homo sapiens, UniProt Q14145); assay: biochemical
[3] = target: T2, Keap1 (His/GST); assay: Keap1 TR-FRET Assay 3 (CDDO-FITC/Tb-Anti-6xHis); assay type: binding
[4] = target: T3, WT Keap1 (tag-free, full-length) (Homo sapiens, UniProt Q14145); assay: biochemical
[5] = target: T3, WT Keap1 (tag-free, full-length); assay: biochemical; conditions: read-out: Assay 1: % at 100
[6] = system: halofuginone-induced P. falciparum (elevated proline homeostasis); assay: P. falciparum asexual blood stage growth assay, halofuginone-induced parasites; conditions: for EC50: Plasmodium falciparum, DD2, 72 h, read-out: Dd2 (EC50 [nM]) Halofuginone-induced; for percent growth at 10 μM: halofuginone-induced, shown because compound had <50% growth inhibition
[7] = system: P. falciparum Dd2-2D4; assay: P. falciparum asexual blood stage growth assay, wild type; conditions: for EC50: read-out: Dd2 (EC50 [nM]) wt; for percent growth at 10 μM: Dd2 wt, shown because compound had <50% growth inhibition
[8] = target: T4, HsProRS (Homo sapiens, UniProt P07814); assay: TR-FRET ProRS ligand displacement / saturation binding assay, HsProRS; conditions: for fold less tightly bound to HT-HsProRS relative to HT-PfcProRS: tracer KD ratio
T4 construct: made in house; host or cells: SoluBL-21 E. coli
T4 sequence (P07814 996-1512): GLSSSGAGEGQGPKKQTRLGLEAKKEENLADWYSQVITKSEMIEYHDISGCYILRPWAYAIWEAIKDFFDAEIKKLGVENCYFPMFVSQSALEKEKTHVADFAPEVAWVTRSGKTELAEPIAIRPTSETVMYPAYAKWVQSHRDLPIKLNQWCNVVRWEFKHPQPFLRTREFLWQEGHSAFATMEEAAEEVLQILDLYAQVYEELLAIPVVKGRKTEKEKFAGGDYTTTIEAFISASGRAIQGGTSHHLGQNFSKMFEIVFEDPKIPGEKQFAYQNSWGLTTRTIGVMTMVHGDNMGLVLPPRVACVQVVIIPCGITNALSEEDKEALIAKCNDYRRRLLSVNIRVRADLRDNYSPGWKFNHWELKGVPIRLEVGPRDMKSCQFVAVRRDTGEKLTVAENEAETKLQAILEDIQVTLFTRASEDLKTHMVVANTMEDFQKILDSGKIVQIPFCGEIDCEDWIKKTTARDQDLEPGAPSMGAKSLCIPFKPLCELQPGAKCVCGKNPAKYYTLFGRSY

[9] = target: T5, BRD4 in MCF7 cells (Homo sapiens, UniProt O60885); assay: TR-FRET BRD4 quantification after degrader treatment, MCF7 cells; assay type: cell-based; conditions: for rescue of CS-JQ1-mediated BRD4 degradation: 250 nM CS-JQ1, 1 μM rescue compound or 10 μM JQ1; for rescue of dBET6-induced BRD4 degradation: 250 nM dBET6, 1 μM rescue compound or 10 μM JQ1, 5 h
T5 construct: TR-FRET-based quantification of BRD4 levels in unmodified cell lines after degrader treatment; endogenous in cells; host or cells: MCF7

[10] = target: T6, BRD4 in MDA-MB-231 cells (Homo sapiens, UniProt O60885); assay: TR-FRET BRD4 quantification after degrader treatment, MDA-MB-231 cells; assay type: cell-based; conditions: for rescue of CS-JQ1-mediated BRD4 degradation: 250 nM CS-JQ1, 1 μM rescue compound or 10 μM JQ1; for rescue of dBET6-induced BRD4 degradation: 250 nM dBET6, 1 μM rescue compound or 10 μM JQ1, 5 h
T6 construct: TR-FRET-based quantification of BRD4 levels in unmodified cell lines after degrader treatment; endogenous in cells; host or cells: MDA-MB-231

[11] = dose-titration of ATP and proline against tracer MAT379, read-out: PfcProRS KD of substrates
[12] = Plasmodium falciparum, DD2, 72 h
[13] = PfcProRS (KD [nM]) +proline, 100 μM proline
[14] = PfcProRS (KD [nM]) −, absence of substrates
[15] = absence of substrates, read-out: HsProRS (KD [nM]) −
[16] = read-out: HsProRS (KD [nM]) +proline, 100 μM proline
[17] = dose-titration of tracer on HT-HsProRS, read-out: HsProRS KD of tracers
[18] = substrate condition not given, read-out: HsProRS KD
[19] = PfcProRS KD, substrate condition not given

T3 sequence (Q14145 whole entry): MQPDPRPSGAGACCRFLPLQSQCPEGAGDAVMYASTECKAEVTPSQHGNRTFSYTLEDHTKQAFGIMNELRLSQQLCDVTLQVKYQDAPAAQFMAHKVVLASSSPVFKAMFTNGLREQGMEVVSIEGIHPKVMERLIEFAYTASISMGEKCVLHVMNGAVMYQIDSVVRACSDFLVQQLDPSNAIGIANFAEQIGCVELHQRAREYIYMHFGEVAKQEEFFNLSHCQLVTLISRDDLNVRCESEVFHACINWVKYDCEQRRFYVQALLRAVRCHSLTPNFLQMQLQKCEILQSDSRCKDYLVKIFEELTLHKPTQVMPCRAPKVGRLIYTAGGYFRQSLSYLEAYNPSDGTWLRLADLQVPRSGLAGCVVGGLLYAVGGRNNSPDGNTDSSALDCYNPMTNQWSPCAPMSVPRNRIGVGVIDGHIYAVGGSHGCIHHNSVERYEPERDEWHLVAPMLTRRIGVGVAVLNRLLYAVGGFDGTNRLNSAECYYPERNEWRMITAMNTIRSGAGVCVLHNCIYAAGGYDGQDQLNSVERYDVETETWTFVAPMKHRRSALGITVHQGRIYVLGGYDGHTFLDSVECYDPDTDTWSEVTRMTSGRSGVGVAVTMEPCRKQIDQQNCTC
T2 sequence (Q14145 whole entry): as above
T1 sequence (Q8I5R7 249-746): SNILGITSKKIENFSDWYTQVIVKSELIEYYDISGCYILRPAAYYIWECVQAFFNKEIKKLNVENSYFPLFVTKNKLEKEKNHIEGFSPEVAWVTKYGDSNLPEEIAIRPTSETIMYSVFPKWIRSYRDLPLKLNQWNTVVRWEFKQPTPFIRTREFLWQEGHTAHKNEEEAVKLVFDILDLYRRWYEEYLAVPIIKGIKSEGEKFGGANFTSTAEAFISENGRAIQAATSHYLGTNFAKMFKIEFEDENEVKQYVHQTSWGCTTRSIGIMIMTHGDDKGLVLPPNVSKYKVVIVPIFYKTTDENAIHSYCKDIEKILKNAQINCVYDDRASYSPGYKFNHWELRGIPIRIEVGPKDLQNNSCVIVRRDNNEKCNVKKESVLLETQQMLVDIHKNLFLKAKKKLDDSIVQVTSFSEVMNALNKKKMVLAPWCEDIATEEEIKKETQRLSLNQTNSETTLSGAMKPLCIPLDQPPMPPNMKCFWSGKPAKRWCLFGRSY

Kd [1, 11]: 892000 nM
SMILES: Nc1ncnc2c1ncn2[C@@H]1O[C@H](COP(=O)(O)OP(=O)(O)OP(=O)(O)O)[C@@H](O)[C@H]1O [ATP]

IC50 [2]: 224000 nM | IC50 [3]: 4 nM
SMILES: CC1(C)CC[C@]2(C(=O)O)CC[C@]3(C)[C@H](C(=O)C=C4[C@@]5(C)C=C(C#N)C(=O)C(C)(C)[C@@H]5CC[C@]43C)[C@@H]2C1 [CDDO, (4aS,6aR,6bS,8aR,12aS,14aR,14bS)-11-cyano-2,2,6a,6b,9,9,12a-heptamethyl-10,14.dioxo-1,3,4,5,6,6a,6b,7,8,8a,9,10,12a,14,14a,14b-hexadecahydropicene-4a(2H)-carboxylic acid]

IC50 [2]: 103000 nM | IC50 [4]: 24 nM | Kd [4]: 13 nM | inhibition at 100 µM [5]: < 10% | IC50 [3]: 11 nM
SMILES: COC(=O)[C@]12CCC(C)(C)C[C@H]1[C@H]1C(=O)C=C3[C@@]4(C)C=C(C#N)C(=O)C(C)(C)[C@@H]4CC[C@@]3(C)[C@]1(C)CC2 [CDDO-Me, bardoxolone methyl]

SMILES: CC(C)(C)OC(=O)NC1CCN(C(=O)Nc2nccnc2C(=O)NC2Cc3ccccc3C2)CC1 [Compound 7, tert-butyl (1-((3-((2,3-dihydro-1H-inden-2-yl)carbamoyl)pyrazin-2-yl)carbamoyl)piperidin-4-yl)carbamate]
EC50 [6]: 2170 nM | EC50 [7, 12]: 90.6 nM | Kd [1, 13]: 13.2 nM | Kd [1, 14]: 13.1 nM

SMILES: CC(C)(C)OC(=O)N1CCC[C@H]1C(=O)NC1CCN(C(=O)Nc2nccnc2C(=O)NC2Cc3ccccc3C2)CC1 [Compound 31, tert-butyl (S)-2-((1-((3-((2,3-dihydro-1H-inden-2-yl)carbamoyl)pyrazin-2-yl)carbamoyl)piperidin-4-yl)carbamoyl)pyrrolidine-1-carboxylate]
percent growth at 10 μM [6]: 98%† | Kd [8]: > 5000 nM | percent growth at 10 μM [7]: 102%† | Kd [1, 13]: 1990 nM | Kd [1, 14]: 2300 nM

SMILES: CC(C)(C)OC(=O)N1CCC[C@H]1C(=O)NCC1CCN(C(=O)Nc2nccnc2C(=O)NC2Cc3ccccc3C2)CC1 [Compound 32, tert-butyl (S)-2-(((1-((3-((2,3-dihydro-1H-inden-2-yl)Carbamoyl)pyrazin-2-yl)carbamoyl)piperidin-4-yl)methyl)carbamoyl)pyrrolidine-1-carboxylate]
EC50 [6]: 1530 nM | Kd [8, 15]: 72.1 nM | Kd [8, 16]: 270 nM | EC50 [7, 12]: 63.2 nM | Kd [1, 13]: 5.35 nM | Kd [1, 14]: 6.67 nM

IC50 [2]: 266000 nM | IC50 [4]: 129000 nM | Kd [4]: 67400 nM | inhibition at 100 µM [5]: < 5% | IC50 [3]: 64800 nM
SMILES: COC(=O)/C=C/C(=O)OC [DMF, dimethyl fumarate]

SMILES: CC[C@H](C)[C@H](N)C(=O)NS(=O)(=O)NC[C@H]1O[C@@H](n2cnc3c(N)ncnc32)[C@H](O)[C@@H]1O [IleSNA]
IC50 ([7]; Plasmodium falciparum, DD2, read-out: ABS IC50): 1.19 nM

SMILES: O=C(NC1Cc2ccccc2C1)c1nccnc1NC(=O)N1CCC(NC(=O)[C@@H]2CCCN2)CC1 [MAT334, (S)-N-(2,3-dihydro-1H-inden-2-yl)-3-(4-(pyrrolidine-2-carboxamido)piperidine-1-carboxamido)pyrazine-2-carboxamide]
percent growth at 10 μM [6]: 59%† | Kd [8, 16]: 2130 nM | percent growth at 10 μM [7]: 76%† | Kd [1, 13]: 660 nM | Kd [1, 14]: 1380 nM

SMILES: O=C(NC1Cc2ccccc2C1)c1nccnc1NC(=O)N1CCC(CNC(=O)[C@@H]2CCCN2)CC1 [MAT345, (S)-N-(2,3-dihydro-1H-inden-2-y)-3-(4-((pyrrolidine-2-carboxamido)methyl)piperidine-1-carboxamido)pyrazine-2-carboxamide]
EC50 [6]: 7210 nM | Kd [8, 15]: 140 nM | Kd [8, 16]: 282 nM | EC50 [7, 12]: 249 nM | Kd [1, 13]: 35.9 nM | Kd [1, 14]: 39.8 nM

SMILES: O=C(CCCCCNC(=S)Nc1ccc(-c2c3ccc(=O)cc-3oc3cc(O)ccc23)c(C(=O)O)c1)NC1CCN(C(=O)Nc2nccnc2C(=O)NC2Cc3ccccc3C2)CC1 [MAT379]
Kd [8, 17]: 1700 nM | fold less tightly bound to HT-HsProRS relative to HT-PfcProRS [8]: 17 fold and > 15 fold | koff ([1]; 10-fold dilution of 100 nM HT-PfcProRS and 560 nM MAT379, read-out: first-order dissociation rate constant (koff)): < 0.00267 s⁻¹ | Kd ([1]; absence of substrates, read-out: PfcProRS (KD [nM]) −): 100 nM

SMILES: O=C(CCCCCNC(=S)Nc1ccc(-c2c3ccc(=O)cc-3oc3cc(O)ccc23)c(C(=O)O)c1)NCCCCCC(=O)NC1CCN(C(=O)Nc2nccnc2C(=O)NC2Cc3ccccc3C2)CC1 [MAT422]
Kd [8, 17]: > 4000 nM | Kd ([1]; KD, PfcProRS of alternative tracer, tracer binding, conditions not stated): 1280 nM

SMILES: O=C(CCCCCNC(=S)Nc1ccc(C(=O)O)c(-c2c3ccc(=O)cc-3oc3cc(O)ccc23)c1)NCC1CCN(C(=O)Nc2nccnc2C(=O)NC2Cc3ccccc3C2)CC1 [MAT425, 4-(3-(6-(((1-((3-((2,3-dihydro-1H-inden-2-yl)carbamoyl)pyrazin-2-yl)carbamoyl)piperidin-4-yl)methyl)amino)-6-oxohexyl)thioureido)-2-(6-hydroxy-3-oxo-3H-xanthen-9-yl)benzoic acid]
Kd [8, 17]: > 10000 nM | fold less tightly bound to HT-HsProRS relative to HT-PfcProRS [8]: > 50 fold | Kd [1, 14]: 199 nM

SMILES: NCCOCCOCCCCCCN(C[C@H]1O[C@@H](n2cnc3c(N)ncnc32)[C@H](O)[C@@H]1O)S(=O)(=O)NC(=O)[C@@H]1CCCN1 [MAT556, (S)-N-(N-(((2R,3S,4R,5R)-5-(6-amino-9H-purin-9-yl)-3,4-dihydroxytetrahydrofuran-2-yl)methyl)-N-(6-(2-(2-aminoethoxy)ethoxy)hexyl)sulfamoyl)pyrrolidine-2-carboxamide]
Kd [8, 18]: 33.7 nM | Kd [1, 19]: 195 nM

rescue of CS-JQ1-mediated BRD4 degradation [9]: substantially rescued | rescue of dBET6-induced BRD4 degradation [9]: attenuated | rescue of CS-JQ1-mediated BRD4 degradation [10]: substantially rescued | rescue of dBET6-induced BRD4 degradation [10]: attenuated
SMILES: NS(=O)(=O)OC[C@@H]1C[C@@H](n2ccc3c(N[C@H]4CCc5ccccc54)ncnc32)C[C@@H]1O [MLN4924]

rescue of CS-JQ1-mediated BRD4 degradation [9]: substantially rescued | rescue of dBET6-induced BRD4 degradation [9]: attenuated | rescue of CS-JQ1-mediated BRD4 degradation [10]: substantially rescued | rescue of dBET6-induced BRD4 degradation [10]: attenuated
SMILES: NS(=O)(=O)OC[C@H]1C[C@@H](Nc2ccnc3cc(-c4cccc(SC(F)(F)F)c4)nn23)[C@H](O)[C@@H]1O [MLN7243]

IC50 [2]: 24600 nM | IC50 [3]: 3390 nM
SMILES: COC1=CC(=O)C(O)=C/C1=C\C=C\c1ccccc1 [OBT, obtusaquinone]

SMILES: Nc1ncnc2c1ncn2[C@@H]1O[C@H](COS(=O)(=O)NC(=O)[C@@H]2CCCN2)[C@@H](O)[C@H]1O [ProSA, prolyl-sulfamoyl adenosine, reference compound]
EC50 ([7]; wild-type Dd2-2D4, 72 h growth): 151 nM

SMILES: Nc1ncnc2c1ncn2[C@@H]1O[C@H](CNS(=O)(=O)NC(=O)[C@@H]2CCCN2)[C@@H](O)[C@H]1O [ProSNA, (S)-N-(N-(((2R,3S,4R,5R)-5-(6-amino-9H-purin-9-yl)-3,4-dihydroxytetrahydrofuran-2-yl)methyl)sulfamoyl)pyrrolidine-2-carboxamide]
Kd [8, 18]: < 1 nM | EC50 [7, 12]: 172 nM | Kd [1, 19]: < 1 nM

rescue of CS-JQ1-mediated BRD4 degradation [9]: substantially rescued | rescue of dBET6-induced BRD4 degradation [9]: attenuated | rescue of CS-JQ1-mediated BRD4 degradation [10]: substantially rescued | rescue of dBET6-induced BRD4 degradation [10]: attenuated
SMILES: CC(C)C[C@H](NC(=O)[C@H](Cc1ccccc1)NC(=O)c1cnccn1)B(O)O [bortezomib]

SMILES: O=C(CC1NCCCC1O)Cn1cnc2cc(Br)c(Cl)cc2c1=O (stereo not drawn) [halofuginone, reference compound]
fold increased affinity in the presence of ATP ([1]; 500 μM ATP vs 0 μM ATP): > 6,000 fold

SMILES: O=C(O)[C@@H]1CCCN1 [proline]
Kd ([8]; read-out: HsProRS KD of proline, competition with MAT379): 67100 nM | Kd [1, 11]: 457000 nM
